Test results as given in patent publication US11241480B2, “Methods for modulation of dietary and microbial exposure with compositions comprising an EGFR ligand” (Washington University, priority 2017, dated 2022).

Experiments:
C57BL/6 mice = test: DSS colitis after early-life manipulation of GAPs; type: in vivo; details: 3% DSS DOL30-38
Method: (§1) Treatments to alter GAPs: Acute induction or inhibition of GAPs was performed as previously described. Mice were given 500 μg/kg tyrphostin AG1478 i.p. to inhibit of EGFR activation, 10 mg/kg U0126 i.p. to inhibit MAPK/ERK (MEK1/MEK2) activation, 150 μg/kg carbamylcholine (acetycholine analogue) i.p., 100 mg/kg tropicamide (mAChR4 selective antagonist) i.p., 1 μg recombinant murine EGF (Shenandoah) in 20 μl PBS intracolonic, 10 μg LPS intraluminally, or 100 μl stomach contents from a DOL10 mice intraluminally, or 100 μl heat killed cecal contents from SPF housed adult mice intraluminally. Reagents from Sigma Aldrich, St. Louis, Mo. unless otherwise noted.
(§2) Adoptive T cell Transfer: 10^5 splenic CD4^+ T cells from CD45.1 CBir1 TCR transgenic mice, CD45.1+ DP1 TCR transgenic mice, or CD45.1+ OTII TCR transgenic mouse were enriched by magnetic particles (Stemcell Technology, #19752 Vancouver, British Columbia, Canada) and injected i.v. into mice. In some experiments cells were labeled with CFSE prior to injection, and MLNs of recipient mice were analyzed three days posts transfer. Mice were analyzed seven days posts transfer to evaluate the presence of the transferred population in the LP. In some experiments, in FIG. 34, FIG. 37, and FIG. 39, cells were transferred on DOL 16, and analyzed on DOL 30 or after 8 days of DSS treatment on DOL 38.
DSS colitis: Mice were given DSS (36,000-50,000 MW, Reagent grade, MP Biomedicals) in drinking water ad libitum for eight days. Math1^fl/fl ERT2^ViCre mice and litter mates were given 1.5% DSS due to their increased susceptibility to disease. Weight was measured daily. On the final day, colons were measured for length to assess shortening, and were fixed in buffered formalin and embedded in paraffin for sectioning. H/E sections were scored for disease as before. In some experiments, colon LP was isolated on the final day of DSS treatment to analyze endogenous T cell and transferred CBir1 T cell populations.

[1] = tested on: colonic LP-APCs (LP-MNPs); test: Luminal antigen delivery to LP-APCs/LP-MNPs, read out by ex vivo T cell co-culture; type: in vivo, mice; details: for luminal antigen uptake by colonic APCs (expansion of Ova-specific T-cells): DOL 18 mice, agent concurrent with luminal Ova
Method: Analysis of luminal antigen delivery to LP-DCs: Mice received Ova 20 g/L (Sigma Aldrich) for 3 days prior to isolation of LP-APCs (dietary Ova FIG. 1C) or were anesthetized and 2 mg Ova (OTI assay) or 25 mg Ova (OTII assay) dissolved in phosphate buffered saline (PBS), or PBS alone (controls), was injected intraluminally into the SI or colon as previously described. Two hours later cell populations were isolated from the non-Peyer's patch bearing SI LP or non-colonic patch bearing colon LP. APC populations and Ova specific […] T-cells were isolated with flow cytometric cell sorting and cultured at a ratio of 1:10 APCs (1×10^4) to T-cells (1×10^5). As a positive control, 10 μg Ova was added to cultures of APC populations isolated from mice receiving luminal PBS. After 3 days, cultures were evaluated for the number of T-cells by flow cytometry and cell counting.
LP-MNP/T cell co-culture: 1×10^5 flow cytometrically sorted splenic CD3+CD4+Vβ8.3+ CBir1 T cells or 1×10^5 flow cytometrically sorted splenic CD3^+CD4^+Vα2^+Vβ5^+ OTI T cells were cultured with […] CD45+ MHCII+ CD11c+ flow cytometrically sorted SI or colonic LP-MNPs isolated from mice two hours following intraluminal administration of 2 mg Ova or PBS. Some wells were cultured with 10 μg Ova or 10 μg CBir1 Flagellin as a positive control. After three days, cultured cells were counted and analyzed by flow cytometry to determine absolute number of transgenic cells to calculate fold increase of T cells.

CBir1 T cells = test: Adoptive transfer of CBir1/DP1 TCR transgenic T cells; type: in vivo, mice
Method: Isolation of cellular populations and flow cytometry: Small intestines or colons were harvested, rinsed with PBS, and Peyer's patches or colonic patches were removed. Epithelial cellular populations were released by incubating for 15 min three times in a 37° C. rotating incubator in HBSS media (BioWhittaker, Walkersville, Md.) containing 5 mM EDTA as previously described. Isolation of splenic, MLN and lamina propria (LP) cellular populations was performed as previously described. In some experiments, single cell suspensions of MLN were cultured in cell culture media for three days as previously described. The first wash of HBSS+EDTA was used to isolate goblet cells as below. SI and colonic LP-MNPs were identified as 7AAD^−, CD45^+, CD11c^+, MHCII^+for flow cytometric sorting. Goblet cells were identified as CD45^−, CD24^−CK18^+, UEA-I^+for flow cytometric sorting as previously described. For intracellular antigens and cytokines, cells were fixed and permeabilized overnight and stained per the manufacturers recommendations (eBioscience). Flow cytometry was performed with a FACScan cytometer (BD Biosciences, San Jose, Calif.) retrofitted with additional lasers. Data acquisition was performed using CellQuest (BD Biosciences) and Rainbow (Cytek,Fremont, Calif.) or FlowJo software (Tree Star, Ashland, OR). Data analysis was performed on a Macintosh computer running FlowJo software.
as §1, §2

[2] = EGF on DOL10-21 or EGFR inhibition on DOL 24 and 26
[3] = EGFR inhibitors on DOL14 and 16 (post-neonatal phase)
[4] = EGFR inhibitors on DOL24 and 26 post-weaning
[5] = intracolonic EGF DOL10-21, transfer DOL16

Row | Compound | Foxp3 expression of transferred CBir1 T cells after DSS (C57BL/6 mice; [2]) | disease severity in DSS colitis (histology, colon length) (C57BL/6 mice; [2]) | expansion of CBir1 T cells in colon LP after DSS (C57BL/6 mice; [2]) | inflammatory cytokines of transferred CBir1 T cells after DSS (C57BL/6 mice; [2]) | weight loss in DSS colitis (C57BL/6 mice; [2]) | Foxp3 and inflammatory cytokine expression of CBir1 T cells after DSS (C57BL/6 mice; [3]) | expansion of CBir1 T cells in colon LP after DSS (C57BL/6 mice; [3]) | capacity of colonic LP-MNPs to stimulate CBir1 T cells ex vivo ([1]; post-weaning mice (DOL28), EGFR inhibition DOL24 and 26) | Foxp3 expression of transferred CBir1 T cells on DOL30 (CBir1 T cells; [4]) | inflammatory cytokine expression of CBir1 T cells on DOL30 (CBir1 T cells; [4]) | Foxp3 expression of CBir1 and DP1 T cells in colon LP seven days post transfer (CBir1 T cells; antigen encounter post-weaning, DOL28, under EGFR inhibition) | Foxp3 and inflammatory cytokine expression of transferred CBir1 T cells on DOL30 (CBir1 T cells; inhibition of EGFR on DOL14 and 16 (post-neonatal phase), vs controls) | expansion of transferred CBir1 T cells in colon LP on DOL30 (CBir1 T cells; inhibition of EGFR on DOL14 and 16 or on DOL24 and 26) | expansion and activation of transferred CBir1 or DP1 cells in the MLN (CBir1 T cells; post-weaning mice (DOL28), three days after transfer) | luminal antigen uptake by colonic APCs (expansion of Ova-specific T-cells) [1] | luminal antigen uptake by colonic APCs (expansion of Ova-specific T-cells) ([1]; listed as recombinant EGF) | Foxp3 expression of transferred CBir1 T cells on DOL30 (CBir1 T cells; [5]) | expansion of transferred CBir1 T cells in colon LP on DOL30 (CBir1 T cells; [5]) | inflammatory cytokine expression (IL-17, TNFα, IFNγ) of CBir1 T cells on DOL30 (CBir1 T cells; intracolonic EGF DOL10-21, vs PBS treated control mice) | expansion of CBir1 cells in the colon draining MLN three days post transfer (CBir1 T cells; post-neonatal mice, intracolonic recombinant EGF (1 μg daily DOL10-21))
1 | COc1cc2ncnc(Nc3cccc(Cl)c3)c2cc1OC [EGFRi, tyrphostin AG1478] | significantly reduced Foxp3 expression | developed significantly worse disease | significant expansion of CBir1 T cells in colon LP | significantly increased inflammatory cytokines | lost significantly more weight | continued expressing Foxp3 but not inflammatory cytokines | did not expand further in the colon LP | allowed colonic LP-MNPs from post-weaning mice to capture microbial antigen to stimulate CBir1 T cells ex-vivo | significantly less Foxp3 | significantly greater proportion of the population expressed inflammatory cytokines | little Foxp3 expression | no significant difference in the expression of Foxp3+ or inflammatory cytokines | did not affect the expansion of transferred CBir1 T cells | allowed adoptively transferred CBir1 or DP1 cells to expand and become activated |  |  |  |  |  | 
2 | EGF: recombinant murine EGF (Shenandoah); EGFR ligand, given luminally or intracolonically | significantly reduced Foxp3 expression | developed significantly worse disease | significant expansion of CBir1 T cells in colon LP | significantly increased inflammatory cytokines | lost significantly more weight |  |  |  |  |  |  |  |  |  | impaired at expanding Ova-specific T-cells | inhibited GAPs and luminal antigen loading of LP-MNPs | significantly less Foxp3 | significantly less expansion | significantly larger proportion of the remaining CBir1 T cell population expressed inflammatory cytokines | failed to expand
